Structures can show the parent of a compound that is named as a salt. Non-standard residues stand in square brackets, D forms with d. Residues, ends and D or L forms follow the SMILES beside them. Orn = NCCC[C@H](N)C(=O)O
Experiment: in vitro
Conditions: rat, gh3-tre-luc cells, AC50 (uM) modified / 1000

Row | SMILES | CC50 at 24 h [µM]
1 | Cc1ccccc1C(=O)Nc1ccc(C(=O)N2CCCC(O)c3cc(Cl)ccc32)c(C)c1 (centres unmarked) [Tolvaptan] | > 50
2 | Nc1ncnc2c1ncn2CCOCP(=O)(O)O [Adefovir] | > 50
3 | CCCCc1c(C)nc(NCC)nc1OS(=O)(=O)N(C)C [Bupirimate] | > 90
4 | CC(C)C[C@@H]1NC(=O)[C@H](CCCN)NC(=O)[C@H](C(C)C)NC(=O)[C@@H]2CCCN2C(=O)[C@@H](Cc2ccccc2)NC(=O)[C@H](CC(C)C)NC(=O)[C@H](CCCN)NC(=O)[C@H](C(C)C)NC(=O)[C@@H]2CCCN2C(=O)[C@@H](Cc2ccccc2)NC1=O [Gramicidin S] (cyclo(L[dF]PV[Orn]L[dF]PV[Orn])) | 3.05
5 | CNC(=O)c1cc(Oc2ccc(NC(=O)Nc3ccc(Cl)c(C(F)(F)F)c3)cc2)ccn1 [Sorafenib tosylate] | 9.89
6 | CCOc1cccc(-n2cc(C(=O)N3CCN(c4cc(C(=O)O)c5ccccc5c4)CC3)nc2-c2ccc(C)cc2)c1 [PharmaGSID_47337] | 77.9
7 | CCCCCc1ccc(C)cc1O [Amylmetacresol] | > 50
8 | NS(=O)(=O)c1cc2c(cc1C(F)(F)F)NCNS2(=O)=O [Hydroflumethiazide] | > 20
9 | COC(C)(C)CCC[C@H](C)C/C=C/C(C)=C/C(=O)OC(C)C [S-Methoprene] | 70.9
10 | N[C@@H](C(=O)N[C@@H]1C(=O)N2C(C(=O)O)=C(CSc3c[nH]nn3)CS[C@H]12)c1ccc(O)cc1 [Cefatrizine] | > 50
11 | CCCCOCCOCCSC#N [2-(2-Butoxyethoxy)ethyl thiocyanate] | > 100
12 | Cc1cc(O)no1 [Hymexazol] | > 100
13 | O=c1[nH]c2ccc([S+]([O-])CCN3CCC(Cc4ccc(F)cc4)CC3)cc2o1 (centres unmarked) [Besonprodil] | > 90
14 | O=C(OCC(COC(=O)c1ccccc1)(COC(=O)c1ccccc1)COC(=O)c1ccccc1)c1ccccc1 [2,2-Bis[(benzoyloxy)methyl]dibenzoate propanediol] | > 90
15 | CSCC[C@H](N)C(=O)O [Methionine] | > 50
16 | CCC1=C(C)CN(C(=O)NCCc2ccc(S(=O)(=O)NC(=O)N[C@H]3CC[C@H](C)CC3)cc2)C1=O [Glimepiride] | > 50
17 | CCCn1cc[n+](C)c1C [1,2-Dimethyl-3-propylimidazolium iodide] | > 90
18 | O=C(O)COc1ccc(Cl)cc1 [4-Chlorophenoxyacetic acid] | > 90
19 | CCCCC1C(=O)N(c2ccccc2)N(c2ccccc2)C1=O [Phenylbutazone] | > 90

Row | SMILES | CC50 at 24 h [µM]
20 | Cc1ccc(C)o1 [2,5-Dimethylfuran] | > 90
21 | Cc1ccc(N=Nc2c(O)c(C(=O)O)cc3ccccc23)c(S(=O)(=O)O)c1 [D&C Red No. 7] | 27.6
22 | CC#CCC(C)[C@H](O)/C=C/[C@@H]1[C@H]2c3cccc(CCCC(=O)O)c3O[C@H]2C[C@H]1O (mixture of isomers) [Beraprost sodium] | > 50
23 | C[C@]12CCC(=O)C=C1CC[C@@H]1[C@@H]2C(=O)C[C@@]2(C)[C@H]1CC[C@]2(O)C(=O)CO [Cortisone] | > 90
24 | CCCCCCCCCCCCOCC1CO1 (centres unmarked) [Dodecyl glycidyl ether] | > 90
25 | C/C(=C\C(=O)OCCCCCCCCC(=O)O)C[C@@H]1OC[C@H](C[C@@H]2O[C@H]2[C@@H](C)[C@H](C)O)[C@@H](O)[C@H]1O [Mupirocin] | > 50
26 | CCCCCO [1-Pentanol] | > 90
27 | CC(=O)c1ccc(S(=O)(=O)NC(=O)NC2CCCCC2)cc1 [Acetohexamide] | > 90
28 | O=C(CBr)c1ccc(O)cc1 [2-Bromo-4-hydroxyacetophenone] | > 90
29 | CC1(C)CC(=O)CC(C)(C)N1 [2,2,6,6-Tetramethyl-4-piperidone] | > 90
30 | Cn1sc(Cl)cc1=O [5-Chloro-2-methyl-3(2H)-isothiazolone] | 65.6
31 | CCCCc1nc(Cl)c(CO)n1Cc1ccc(-c2ccccc2-c2nn[nH]n2)cc1 [Losartan] | > 50
32 | C1CCN(CN2CCCCC2)CC1 [Dipiperidinomethane] | > 90
33 | CC1=CC[C@H](C(C)C)C=C1 [(R)-alpha-Phellandrene] | > 90
34 | c1csc(SSc2cccs2)c1 [2-Thienyl disulfide] | > 90
35 | COc1c(O)cc2c(c1O)[C@@H]1O[C@H](CO)[C@@H](O)[C@H](O)[C@H]1OC2=O [Bergenin monohydrate] | > 20
36 | C=CC1CC=CCC1 (centres unmarked) [4-Vinylcyclohexene] | > 90
37 | N#[N+]c1ccc2c(S(=O)(=O)[O-])cccc2c1O [1-Naphthalenesulfonic acid, 6-diazo-5,6-dihydro-5-oxo, sodium salt] | > 90
38 | O=[N+]([O-])C1(Br)COCOC1 [5-Bromo-5-nitro-1,3-dioxane] | 11.8

Row | SMILES | CC50 at 24 h [µM]
39 | CCC(=O)Nc1cccc(N)c1 [N-(3-Aminophenyl)propanamide] | > 90
40 | CCN(CC#N)c1cccc(C)c1 [2-(Ethyl(3-methylphenyl)amino)acetonitrile] | > 90
41 | Cn1cnc2c(O)nc(N)nc21 [9-Methylguanine] | > 90
42 | CC(C)NCC(O)COc1cccc2[nH]ccc12 (centres unmarked) [Pindolol] | > 50
43 | CCC(=O)C(=O)CC [3,4-Hexanedione] | > 100
44 | COC(=O)CCCC(=O)OC [Dimethyl glutarate] | > 90
45 | CCCO [1-Propanol] | > 90
46 | COc1cc(Cc2cnc(N)nc2N)cc(OC)c1OC [Trimethoprim] | > 90
47 | SCCCCCCCCS [1,8-Octanedithiol] | > 90
48 | CCCN(CCC)c1c([N+](=O)[O-])cc(C(F)(F)F)c(N)c1[N+](=O)[O-] [Prodiamine] | 14.5
49 | C1CCCCCCCCCCC1 [Cyclododecane] | > 20
50 | O=C/C=C/c1ccccc1 [3-Phenylprop-2-enal] | > 90
51 | Cc1cc(C)cc(OCC2CNC(=O)O2)c1 (centres unmarked) [Metaxalone] | > 50
52 | NCCCC[C@H](NC(=O)[C@@H]1CCCN1C(=O)[C@@H]1CSSC[C@H](N)C(=O)N[C@@H](Cc2ccc(O)cc2)C(=O)N[C@@H](Cc2ccccc2)C(=O)N[C@@H](CCC(N)=O)C(=O)N[C@@H](CC(N)=O)C(=O)N1)C(=O)NCC(N)=O [Lypressin] | > 50
53 | CCCC[C@H]1CN(CC2CCOCC2)C(=O)OC12CCN(C1(C)CCN(C(=O)c3c(C)ncnc3C)CC1)CC2 [PharmaGSID_48521] | > 80
54 | CC1CN(c2ccccc2)NC1=O (centres unmarked) [4-Methyl-1-phenylpyrazolidin-3-one] | > 90
55 | Cc1cccc(C(C)c2cnc[nH]2)c1C (centres unmarked) [Medetomidine hydrochloride] | > 50
56 | CC12CC3CC(C)(C1)CC(N)(C3)C2 [Memantine] | 38.1
57 | CC1CCCCN1CCCOC(=O)c1ccccc1 (centres unmarked) [Piperocaine hydrochloride] | > 50

Same assay, conditions: rat, gh3-tre-luc cells, AC50 (uM) modified / 1000, Tox21_110001=Tox21_112821; viability, 1 nM T3 present, 24 h

Row | SMILES | CC50 at 24 h [µM]
58 | CCCSc1cc(OC)c(CCN)cc1OC [2-[2,5-dimethoxy-4-(propylsulfanyl)phenyl]ethanamine hydrochloride] | 34.6

Same assay, conditions: rat, gh3-tre-luc cells, AC50 (uM) modified / 1000, Tox21_110001=Tox21_112855; viability, 1 nM T3 present, 24 h

Row | SMILES | CC50 at 24 h [µM]
59 | C[C@@H]1[C@H]2Cc3ccc(O)cc3[C@]1(C)CCN2C [(-)-Metazocine fumarate (1:1)] | > 200

Same assay, conditions: rat, gh3-tre-luc cells, AC50 (uM) modified / 1000, Tox21_110001=Tox21_202325; viability, 1 nM T3 present, 24 h

Row | SMILES | CC50 at 24 h [µM]
60 | N#CSCSC#N [Methylene bis(thiocyanate)] | 3.41

Same assay, conditions: rat, gh3-tre-luc cells, AC50 (uM) modified / 1000, Tox21_110001=Tox21_301058; viability, 1 nM T3 present, 24 h

Row | SMILES | CC50 at 24 h [µM]
61 | N#CSCSC#N [Methylene bis(thiocyanate)] | 5.63

Same assay, conditions: rat, gh3-tre-luc cells, AC50 (uM) modified / 1000, Tox21_110001=Tox21_400029; viability, 1 nM T3 present, 24 h

Row | SMILES | CC50 at 24 h [µM]
62 | ClC1=C(Cl)[C@]2(Cl)[C@@H]3[C@@H]4C[C@@H]([C@H]5O[C@@H]45)[C@@H]3[C@@]1(Cl)C2(Cl)Cl [Dieldrin] | 75.8

From publication PMC6792352, “Limited Chemical Structural Diversity Found to Modulate Thyroid Hormone Receptor in the Tox21 Chemical Library” (Environmental Health Perspectives, 2019)
